IC50 data for four compounds are collected here from US20080312212A1, “Organic Compounds” (Novartis AG, priority 2005, published 2008).

Structures are written as SMILES. Counter-ions that a name gives are not always drawn.

This assay deals with T1, epithelial sodium channel (ENaC) (Homo sapiens, UniProt P37088+P51168+P51170).
T1 construct: host or cells: primary human bronchial epithelial cells (HBECs), differentiated at air-liquid interface
T1 sequence (P37088 1-669): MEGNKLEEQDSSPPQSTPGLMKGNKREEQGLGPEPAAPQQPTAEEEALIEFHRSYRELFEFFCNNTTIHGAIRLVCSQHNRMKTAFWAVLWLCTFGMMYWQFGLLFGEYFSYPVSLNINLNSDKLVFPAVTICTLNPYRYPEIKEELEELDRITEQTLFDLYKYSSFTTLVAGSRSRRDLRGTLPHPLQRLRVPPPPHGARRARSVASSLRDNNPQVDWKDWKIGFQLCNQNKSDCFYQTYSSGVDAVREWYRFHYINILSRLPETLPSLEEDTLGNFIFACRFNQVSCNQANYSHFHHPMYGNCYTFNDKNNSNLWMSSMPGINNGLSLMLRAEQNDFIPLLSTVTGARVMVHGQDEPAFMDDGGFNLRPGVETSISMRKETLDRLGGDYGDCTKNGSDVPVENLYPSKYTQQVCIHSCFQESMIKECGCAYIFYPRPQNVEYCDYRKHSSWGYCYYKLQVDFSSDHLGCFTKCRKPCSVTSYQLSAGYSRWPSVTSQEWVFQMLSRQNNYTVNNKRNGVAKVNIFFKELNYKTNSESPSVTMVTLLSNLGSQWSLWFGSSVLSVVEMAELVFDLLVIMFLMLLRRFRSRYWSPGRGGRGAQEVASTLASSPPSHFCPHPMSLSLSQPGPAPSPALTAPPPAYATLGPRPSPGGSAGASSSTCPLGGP
T1 sequence (P51168 1-640): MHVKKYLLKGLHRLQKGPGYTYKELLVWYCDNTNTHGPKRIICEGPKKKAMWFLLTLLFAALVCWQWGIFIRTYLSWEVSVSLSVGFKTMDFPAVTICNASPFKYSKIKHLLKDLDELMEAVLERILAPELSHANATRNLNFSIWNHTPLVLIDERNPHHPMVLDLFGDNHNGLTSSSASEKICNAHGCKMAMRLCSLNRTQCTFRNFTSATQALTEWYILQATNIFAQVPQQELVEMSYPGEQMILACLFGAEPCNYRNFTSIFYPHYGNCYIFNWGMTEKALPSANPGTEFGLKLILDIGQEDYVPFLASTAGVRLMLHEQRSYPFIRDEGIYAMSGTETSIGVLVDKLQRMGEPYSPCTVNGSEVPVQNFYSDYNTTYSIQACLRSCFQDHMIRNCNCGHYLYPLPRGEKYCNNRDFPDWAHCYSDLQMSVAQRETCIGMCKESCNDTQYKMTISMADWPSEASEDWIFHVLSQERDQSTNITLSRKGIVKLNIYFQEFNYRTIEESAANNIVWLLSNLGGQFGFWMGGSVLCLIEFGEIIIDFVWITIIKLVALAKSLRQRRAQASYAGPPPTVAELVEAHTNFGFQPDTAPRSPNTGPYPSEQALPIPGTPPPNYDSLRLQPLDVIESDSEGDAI
T1 sequence (P51170 1-649): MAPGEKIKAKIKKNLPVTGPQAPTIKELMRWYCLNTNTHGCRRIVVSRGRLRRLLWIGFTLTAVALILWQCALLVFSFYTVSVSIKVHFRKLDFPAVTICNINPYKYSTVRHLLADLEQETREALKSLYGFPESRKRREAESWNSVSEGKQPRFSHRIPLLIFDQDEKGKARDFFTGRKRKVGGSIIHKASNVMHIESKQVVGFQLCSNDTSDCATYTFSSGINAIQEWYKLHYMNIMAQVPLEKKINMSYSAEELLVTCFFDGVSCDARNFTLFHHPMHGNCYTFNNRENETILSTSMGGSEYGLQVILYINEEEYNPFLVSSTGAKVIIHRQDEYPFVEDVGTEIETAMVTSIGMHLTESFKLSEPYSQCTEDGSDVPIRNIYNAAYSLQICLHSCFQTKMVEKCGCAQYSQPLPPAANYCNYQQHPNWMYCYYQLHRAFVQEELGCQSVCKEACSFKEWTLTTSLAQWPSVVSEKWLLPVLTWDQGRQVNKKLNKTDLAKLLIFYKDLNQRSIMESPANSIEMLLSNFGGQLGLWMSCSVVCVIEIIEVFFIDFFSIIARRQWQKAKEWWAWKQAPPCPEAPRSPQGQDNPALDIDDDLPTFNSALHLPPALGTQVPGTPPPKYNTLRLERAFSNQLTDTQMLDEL
The experiment in a line: Short circuit current (ISC) measurements in Human Bronchial Epithelial cells. The class given is cell-based. The note with it: HBECs at air-liquid interface, Ussing chamber, apical addition; read-out: IC50 (inhibition of the amiloride-sensitive ISC). As to the method:
Human Bronchial Epithelial cells (HBECs) (Cambrex) were cultured under air-liquid interface conditions to provide a well differentiated mucociliary phenotype.
HBECs were cultured using a modification of the method described by Gray and colleagues
(Gray et al., 1996). Cells were seeded in plastic T-162 flasks and were grown in bronchial epithelial cell growth medium (BEGM; Cambrex) supplemented with bovine pituitary extract (52 μg/mL), hydrocortisone (0.5 μg/mL), human recombinant epidermal growth factor ([…]), epinephrine (0.5 μg/mL), transferrin (10 μg/mL), insulin (5 μg/mL), retinoic acid (0.1 μg/mL), triiodothyronine ([…]), gentamycin (50 μg/mL) and amphotericin B (50 μg/mL). Medium was changed every 48 hours until cells were 90% confluent. Cells were then passaged and seeded (8.25×10^5 cells/insert) on polycarbonate Snapwell inserts (Costar) in differentiation media containing 50% DMEM in BEGM with the same supplements as above but without triiodothyronine and a final retinoic acid concentration of 50 nM (all-trans retinoic acid). Cells were maintained submerged for the first 7 days in culture, after which time they were exposed to an apical air interface for the remainder of the culture period. At this time, media was changed to DMEM:F12 media containing 2% v/v Ultroser G for the remainder of culture. Amphotericin B was removed from all media 3 feeds prior to use in the Ussing Chambers. Cells were used between days 7 and 21 after establishment of the apical-air interface. At all stages of culture, cells were maintained at 37° C. in 5% CO2 in an air incubator.
Snapwell inserts were mounted in Vertical Diffusion Chambers (Costar) and were bathed with continuously gassed Ringer solution (5% CO2 in O2; pH 7.4) maintained at 37° C. containing (in mM): 120 NaCl, 25 NaHCO3, 3.3 KH2PO4, 0.8 K2HPO4, 1.2 CaCl2, 1.2 MgCl2, and 10 glucose. The solution osmolarity was between 280 and 300 mOsmol/kg H2O for all physiological salt solutions used. Cells were voltage clamped to 0 mV (model EVC4000; WPI). RT was measured by applying a 1- or 2-mV pulse at 30-s intervals and calculating RT by Ohm's law. Data were recorded using a PowerLab workstation (ADInstruments).
Test compounds were prepared as a 10 mM stock solution in DMSO (95%). Serial 3-fold dilutions were freshly prepared in an appropriate vehicle (distilled H2O or Ringers solution). […] At the completion of the concentration-response experiment, amiloride (10 μM) was added into the apical chamber to enable the total amiloride-sensitive current to be measured. […]
Results are expressed as the mean % inhibition of the amiloride-sensitive ISC. […] Cell inserts were typically run in duplicate and the IC50 calculated on the mean % inhibition data.

For `N=C(NCCCCCCNS(=O)(=O)c1cccc2ccccc12)NC(=O)c1nc(Cl)c(N)nc1N` [Example 3], the IC50 is 16.4 nM.

Turning to `N=C(NCCCC(=O)N(Cc1ccccc1)[C@H]1CC2CC[C@H](C1)N2Cc1ccccc1)NC(=O)c1nc(Cl)c(N)nc1N` [Example 12], the IC50 was 65.9 nM.

Consider `COC(=O)[C@H](CCCCNC(=N)NC(=O)c1nc(Cl)c(N)nc1N)NS(=O)(=O)c1ccc(C)cc1` [Example 17, (S)-6-[N′-(3,5-Diamino-6-chloro-pyrazine-2-carbonyl)-guanidino]-2-(toluene-4 sulfonylamino)-hexanoic acid methyl ester trifluoroacetate], for which the IC50 turned out to be 33 nM.

As for `N=C(NCCCCNC(=O)Cc1ccccc1)NC(=O)c1nc(Cl)c(N)nc1N` [Example 25], the IC50 was determined as 18 nM.

As usually defined, the IC50 is the concentration that inhibits the measured activity by half.
